Results from PubChem BioAssay (NCI).
Values joined by “and” are separate entries in the source; they are usually repeats but may differ in a detail not shown here. Equal entries are not always repeated.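 Cells were grown in 96-well plates and exposed to each compound for 48 hours at five concentrations; endpoints were interpolated linearly between bracketing concentrations, or set to the highest concentration if not reached. At the GI50, growth is halved. TGI: total growth inhibition.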

What was measured:
Test in all cases: DTP human tumour cell line panel, 48 h
786-0 renal = tested on: 786-0 renal
EKVX NSCLC = tested on: EKVX NSCLC
NCI-H460 lung = tested on: NCI-H460 lung
HT29 colon = tested on: HT29 colon
OVCAR-3 ovarian = tested on: OVCAR-3 ovarian
K-562 leukemia = tested on: K-562 leukemia
SN12C renal = tested on: SN12C renal
UO-31 renal = tested on: UO-31 renal
UACC-257 melanoma = tested on: UACC-257 melanoma
ACHN renal = tested on: ACHN renal
SK-MEL-28 melanoma = tested on: SK-MEL-28 melanoma
M14 melanoma = tested on: M14 melanoma
MOLT-4 leukemia = tested on: MOLT-4 leukemia
HCC-2998 colon = tested on: HCC-2998 colon

Compound	TGI (786-0 renal) [µM]	TGI (EKVX NSCLC) [µM]	TGI (NCI-H460 lung) [µM]	TGI (HT29 colon) [µM]	TGI (OVCAR-3 ovarian) [µM]	TGI (K-562 leukemia) [µM]	TGI (SN12C renal) [µM]	TGI (UO-31 renal)	TGI (UACC-257 melanoma)	TGI (ACHN renal) [µM]	TGI (SK-MEL-28 melanoma)	TGI (M14 melanoma) [µM]	TGI (MOLT-4 leukemia)	TGI (HCC-2998 colon) [µM]	GI50 (HCC-2998 colon) [µM]	GI50 (NCI-H460 lung) [µM]	GI50 (UO-31 renal) [µM]	GI50 (MOLT-4 leukemia) [µM]	GI50 (UACC-257 melanoma)	GI50 (SK-MEL-28 melanoma) [µM]
CC(=O)O[C@H]1C(=O)[C@@]2(C)[C@H]([C@H](OC(=O)c3ccccc3)[C@]3(O)C[C@H](OC(=O)[C@H](O)[C@@H](NC(=O)c4ccccc4)c4cccc(N(C)C)c4)C(C)=C1C3(C)C)[C@]1(OC(C)=O)CO[C@@H]1C[C@@H]2O	13.3	> 75	27.5	> 32.9	0.586	> 75	> 75	> 64.6 µM	> 75 µM	> 16.4	> 75 µM									
Cc1cc(Nc2ccc(NS(C)(=O)=O)cc2)c2c(ccc3nccc32)[nH]1	45.2	> 100	46.5	89.3	29.1	34.6	38.9	> 100 µM	34.7 µM	60.8	33.4 µM	31.1	11.8 µM							
COC(=O)C1=C(C(=O)OC)C(N(C)C)C(C(=O)OC)=C(C(=O)OC)S1	> 100		> 100		> 100	> 100	> 100	> 100 µM	> 100 µM	> 100	> 100 µM	> 100	> 100 µM	> 100						
CCC(CC)(CO)CNc1cc(Cl)nc(N)n1	> 100	> 100	> 100	> 100	> 100	> 100	> 100	> 100 µM	> 100 µM	> 100	> 100 µM		> 100 µM							
C=CC(=O)N1C/C(=C\c2ccc([N+](=O)[O-])cc2)C(=O)/C(=C/c2ccc([N+](=O)[O-])cc2)C1	0.249	0.829	1.21	< 0.038	1.08		0.772	0.375 µM	3.25 µM	0.33	1.74 µM	0.41		1.21						
COC(=O)c1c2c(cc3c1CC1(Cc4cc5c(c(C(C)=O)c4C1)CCCC5)C3)CCCC2 (stereo not drawn)	> 100	> 100		> 100	> 100	> 100	> 100		> 100 µM	> 100		> 100		> 100						
O=C(c1cccs1)N1CCCN(C(=O)c2cccs2)C1=S	> 100	> 100		> 100	> 100	> 100	> 100	> 100 µM	> 100 µM	> 100	> 100 µM	> 100	> 100 µM							
Cc1c(Cl)cccc1N=NC(=O)NNc1cccc(Cl)c1C	37.7		31.2	35.3	31.4	40.5	32.4	26.3 µM	42.1 µM	45.3	30.1 µM	35.7	46.7 µM	31.1						
O=C(CN1CCCCC1)Nc1ccc2c(c1)C1Oc3ccccc3CC1CO2 (stereo not drawn)	45.8	53.9		29.1	64.9	> 100	> 100	72.7 µM	36 µM			32.3	> 100 µM	34.4						
CCOC(=O)C(=CNC(=S)N=Nc1c(O)[nH]c2ccccc12)C(=O)OCC	> 100		> 100	> 100	> 100	> 100	> 100	> 100 µM	> 100 µM	> 100	> 100 µM	> 100	> 100 µM	> 100						
COc1cccc2cc(C(=O)Nc3ccccc3)c(=N)oc12	> 100	> 100	> 100	> 100	> 100	> 100	> 100	> 100 µM	> 100 µM	> 100	> 100 µM	> 100	> 100 µM							
COC1=C(Cl)C(=O)c2c(O)ccc(O)c2C1=O	0.864	10.6	24.4	11.8	1.04		2.74	3.71 µM	3.41 µM	2.31	6.73 µM	1.28	0.489 µM	27.3						
O=[N+]([O-])/C=C(\CS(=O)(=O)c1ccccc1)c1ccc2c(c1)OCO2	> 100	> 100		> 100	> 100	> 100	> 100	98.7 µM		> 100	> 100 µM	71.4	> 100 µM	> 100						
CN1CCc2c(sc3ncn(Nc4ccc(Cl)cc4)c(=N)c23)C1	> 100	> 100	> 100	> 100	> 100	> 100	> 100		> 100 µM	> 100	> 100 µM	> 100	> 100 µM							
Cc1ccc(-c2cc[n+]3c(n2)oc2ccccc23)cc1	29.5	56.2	> 100		40.9	22.5	> 100	> 100 µM	59.2 µM	99.4	57.8 µM	84.5	31.3 µM	> 100						
Cc1cc2n[n+]3[n-]cc(-c4ccccc4)n3c2cc1[N+](=O)[O-]	> 100	> 100	> 100		> 100	> 100		> 100 µM	> 100 µM	> 100	> 100 µM		> 100 µM							
OC12c3ccccc3C1CCCCCCCCCC21OCCO1 (stereo not drawn)	> 100		> 100	> 100	> 100	> 100	> 100	> 100 µM	> 100 µM	> 100	> 100 µM	> 100	> 100 µM	> 100						
CCCCCCCCCCCCCCCCCCNC(=S)/N=C/c1c(O)c2ccccc2[nH]c1=O	29.8	29.6	32.6	30.9	37.8		41	32.6 µM	37.1 µM	30.9	40.4 µM	35.5	29.7 µM	31.1						
O=C1CC(=O)NC(=NN2C(=O)CSC2C(=O)c2ccco2)N1 (stereo not drawn)	> 100		> 100	> 100	> 100	> 100	> 100	> 100 µM	> 100 µM	> 100	> 100 µM	> 100	> 100 µM	> 100						
Cc1nc2c(cc1OCc1ccccc1)C(=O)C1=C(C2=O)C2OC(=O)CC2OC1(C)C (stereo not drawn)	1.07	3.63	2.9	1.41			0.443	3.24 µM	1.93 µM	1.86	1.14 µM	1.77	87.9 µM	1.91						
COC(=O)C1CCC(=O)N1C(c1cc(OC)c(OC)c(OC)c1)c1cccc2ccccc12 (stereo not drawn)	> 100	> 100	> 100	> 100	> 100	> 100	> 100	> 100 µM	> 100 µM	> 100	> 100 µM	> 100	> 100 µM							
CCOC(=O)CCN1C(=O)C(=O)N(c2ccc(OC)cc2)C1=S	> 100	> 100	> 100	> 100		> 100	> 100	> 100 µM	> 100 µM	> 100	> 100 µM		> 100 µM	> 100						
O=C(OC1CN2CCC1CC2)N(c1ccccc1)c1ccccc1 (stereo not drawn)	> 100	> 100		> 100	> 100	> 100	> 100	> 100 µM	> 100 µM	> 100	> 100 µM	> 100	> 100 µM							
N#Cc1cc(Sc2ccc(N)c(C#N)c2)ccc1N	43.3	50.5	31.1	30.9	> 100	60.2	> 100	> 100 µM	> 100 µM	> 100	> 100 µM	47.8	> 100 µM							
NCCCNOCCCN	> 100		> 100	> 100	> 100	> 100	> 100	> 100 µM		> 100	> 100 µM	> 100	> 100 µM	> 100						
Cc1nc2ccc(F)cc2c(Cl)c1CCCl	> 100	> 100	> 100	> 100	> 100	68.2		> 100 µM	> 100 µM	> 100	> 100 µM		98.6 µM	84.9						
COC(=O)CCNc1c2ccccc2nc2cccc([N+](=O)[O-])c12	0.00134		0.234		0.00397	0.00152	0.0168	0.00492 µM and 0.0113 µM	0.00704 µM and 0.0476 µM		0.0112 µM and 0.0918 µM		0.117 µM and 0.0124 µM	2.33	1.04	0.0138	0.00139	0.00107	0.0023 µM and 0.0122 µM	0.0029
